Assays:
NOD.Foxp3DTR mice = assay: Flow cytometry of PLN cells of NOD.Foxp3DTR mice; type: in vivo, mouse
Procedure: FIG. 6a illustrates details of the mouse model used to analyze the therapeutic effects and mechanisms by which AhR activation alters T cell differentiation. […] Arrows 152 illustrate the NOD.Foxp3^DTR mice were orally dosed with 60 mg/kg AHRL1 on days −1, 1, 3, 5, and 7 relative to DT treatment on day 0. The carrier for AHRL1 was a 30% DMSO, 20% CREMAPHOR, 50% PECEOL solution. Data was also collected from NOD.Foxp3^DTR mice treated with TCDD on day −1 relative to DT treatment on day 0. […] Non-obese diabetic Foxp3 wild type (NOD.Foxp3^WT) mice treated with DT and NOD.Foxp3^DTR mice treated with vehicle were used as controls. The vehicle was the carrier for AHRL1. Arrow 158 illustrates sacrifice of the mice on day 9.
The leukocyte composition of the pancreas and draining lymph nodes was analyzed using flow cytometry. Draining lymph nodes and pancreata were excised from the sacrificed mice, and single cell suspensions were prepared for analysis with flow cytometry. […] Data were acquired using an FC-500 flow cytometer (BECKMAN COULTER) and compensated and analyzed using FLOWJO software. […]

AhR = biological target: T1, AhR (Mus musculus, UniProt P30561); assay: Competitive inhibition of [3H] 3-MC binding to AhR
T1 sequence (P30561 10-848): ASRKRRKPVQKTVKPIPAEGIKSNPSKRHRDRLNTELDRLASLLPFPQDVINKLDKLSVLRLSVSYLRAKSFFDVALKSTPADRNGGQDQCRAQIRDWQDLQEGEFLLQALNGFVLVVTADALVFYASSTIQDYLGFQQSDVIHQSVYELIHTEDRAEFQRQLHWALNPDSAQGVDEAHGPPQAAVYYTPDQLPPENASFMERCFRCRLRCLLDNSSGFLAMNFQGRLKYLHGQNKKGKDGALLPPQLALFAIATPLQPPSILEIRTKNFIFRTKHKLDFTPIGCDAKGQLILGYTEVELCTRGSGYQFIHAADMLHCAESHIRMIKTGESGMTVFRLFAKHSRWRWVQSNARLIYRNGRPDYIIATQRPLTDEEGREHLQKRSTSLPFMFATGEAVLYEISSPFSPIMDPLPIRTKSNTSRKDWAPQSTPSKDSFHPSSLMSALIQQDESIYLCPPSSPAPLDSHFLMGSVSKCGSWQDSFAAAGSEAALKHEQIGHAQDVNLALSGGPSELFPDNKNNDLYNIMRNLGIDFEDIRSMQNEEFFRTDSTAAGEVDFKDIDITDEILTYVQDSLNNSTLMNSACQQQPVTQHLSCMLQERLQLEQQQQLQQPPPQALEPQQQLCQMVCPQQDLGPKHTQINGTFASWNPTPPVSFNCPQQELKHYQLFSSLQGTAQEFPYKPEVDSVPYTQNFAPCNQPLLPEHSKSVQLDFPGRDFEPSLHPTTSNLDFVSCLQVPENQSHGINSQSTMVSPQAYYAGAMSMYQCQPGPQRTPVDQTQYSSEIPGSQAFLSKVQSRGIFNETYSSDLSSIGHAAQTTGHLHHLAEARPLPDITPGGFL
Text: 3-MC binding to AhR. […] 3-methylcholanthrene (3-MC) to AhR.

Compound: Clc1cc2c(cc1Cl)Oc1cc(Cl)c(Cl)cc1O2 [TCDD, 2,3,7,8-tetrachlorodibenzo-p-dioxin]
- percentage of CD4+Foxp3- cells that were Nrp1+ (NOD.Foxp3DTR mice; DT treated NOD.Foxp3DTR mice): decreased
- percentage of CD4+Foxp3- cells that were RORγt+ (NOD.Foxp3DTR mice; TCDD treated mice): 0.42%
- IC50 (AhR): 4.7 nM
